{
  "source": "paper PMC2853223",
  "about": "(ACS chemical biology, 2009)",
  "origin": "cited, not measured here",
  "test_system": "DEBS 3",
  "conditions": "mismatched PikAII/DEBS 3 pairing",
  "data": [
    {"substance": "PiKAII: pikromycin PKS protein PikAII, paired with DEBS 3 in vivo", "values": [
      {"measurement": "association and transfer with DEBS 3 in vivo", "value": "productive association and transfer"}
    ]}
  ]
}
